# Results reported in paper PMC4329990 (2014).
# Tested on: d(C3TA2)3C3/d(T2AG3)4 duplex (DNA, duplex) CCCTAACCCTAACCCTAACCC/TTAGGGTTAGGGTTAGGGTTAGGG
# Assay: fluorescence titration, IT/IN, modified Benesi-Hildebrand
# Details: citrate 10 mM; 10 mM citrate pH 7.0, <1% ethanol, 25 °C
row,Ka [M⁻¹],Compound
1,10400,O=c1c(O)c(-c2ccc(O)c(O)c2)oc2cc(O)cc(O)c12
2,46200,O=c1c(O)c(-c2ccc(O)c(O)c2)oc2cc(O)ccc12
3,86700,O=c1c(O)c(-c2ccccc2)oc2ccccc12
